“Also recorded” adds a separate entry of the source. Read-outs that look alike come from different tables or passages of the source.
Experiments:
[1] = test system: fibrinolysis in pooled normal plasma; experiment: Plasma clot lysis model, clotting initiated by calcium ions and thrombin in presence of plasminogen activator; type: biochemical, human
Method: In order to study the effect of polyP on fibrinolysis independent of its effect on clotting times, the model was modified such that clotting was initiated by a mixture of calcium ions and thrombin in the presence of uPA (pooled normal plasma supplemented with 1.4 nM uPA). The amount of thrombin was chosen to yield rapid clotting times, permitting analyses to focus on the lytic phase only. […] In the absence of polyP, the clots subsequently lysed, with a 50% lysis time of 61 min in this experiment. […] The magnitude of the effect of polyP75 on the inhibition of fibrinolysis was dependent on the uPA concentration. At high uPA concentrations the effect of polyP75 could be masked, presumably reflecting a balance situation between uPA and polyP within the clot (data not shown).
Microplate-based assays of plasma clotting and fibrinolysis—Some of the clotting assays were conducted in flat-bottom, polystyrene, 96-well plates (Corning). Turbidity, a measure of clot formation, was quantified at 37° C. by measuring the absorbance of light at 405 nm in a VERSAmax microplate reader (Molecular Devices, Sunnyvale, Calif.). Reactions (100 μl final volume) typically contained the following final concentrations: 30% (v/v) human plasma; 8 mM Tris-HCl buffer, pH 7.4; 0.008% (v/v) Tween-20; 10.6 mM calcium chloride; and, variably, 10 nM thrombin. In some experiments, clotting reactions were initiated by calcium ions alone. In this case, a 1.25× reaction mixture of the above-described components (except calcium chloride) was prepared in a final volume of 80 μl per well. Clotting was then initiated by adding 20 μl of 53 mM calcium chloride and absorbance at 405 nm was monitored. In other experiments, clotting was initiated by a mixture of calcium ions and thrombin. In these cases, to the 80 μl reaction mixtures described above were added 10 μl of 106 mM calcium chloride followed immediately by 10 μl of 100 nM thrombin. […]

TFPI = target: T1, TFPI (Homo sapiens, UniProt P10646); type: biochemical
T1 construct: Recombinant, full-length human TFPI was a kind gift of Dr. George Broze; gift of Dr. George Broze, Washington University St. Louis
T1 sequence (P10646 29-304): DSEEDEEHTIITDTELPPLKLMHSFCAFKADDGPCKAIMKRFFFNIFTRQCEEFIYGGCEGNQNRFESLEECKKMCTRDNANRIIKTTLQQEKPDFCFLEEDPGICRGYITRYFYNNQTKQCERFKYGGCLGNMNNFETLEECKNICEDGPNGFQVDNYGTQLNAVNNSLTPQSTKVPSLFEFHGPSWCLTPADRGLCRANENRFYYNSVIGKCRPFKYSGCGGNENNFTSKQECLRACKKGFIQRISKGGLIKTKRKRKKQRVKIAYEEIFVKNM
Method: The hypothesis that polyP might block the anticoagulant effect of TFPI was tested. This was examined in a dilute PT assay in which varying concentrations of recombinant TFPI were added to plasma samples. Plasma normally contains relatively low levels of free TFPI, so adding exogenous TFPI can dramatically lengthen PT clotting times.
Coagulometer-based plasma clotting assays—Recombinant human tissue factor was reconstituted into phospholipid vesicles as previously described [18], using a mixture of 20% phosphatidylserine and 80% phosphatidylcholine at a phospholipid:tissue factor molar ratio of 8700:1. Blank phospholipid vesicles (PCPS vesicles) composed of 20% phosphatidylserine and 80% phosphatidylcholine (and no tissue factor) were prepared as described [18]. The thromboplastin reagent for the PT assay was prepared by diluting relipidated tissue factor to a final concentration of 200 ng/ml tissue factor in TBSA buffer (50 mM Tris-HCl pH 7.5, 100 mM NaCl, 0.02% sodium azide, 0.1% (w/v) bovine serum albumin). The thromboplastin reagent for the dilute PT assay was prepared in the same manner as the reagent for the PT assay, except that the relipidated tissue factor was typically diluted to a final concentration of 1 ng/ml tissue factor in TBSA buffer containing 50 μM PCPS vesicles.
The PT, XaT, aPTT and PTT clotting assays were typically performed in a STart coagulometer (Diagnostica Stago) by pre-incubating 50 μl of human plasma with 50 μl of the indicated clotting reagent at 37° C. for the following times: PT and XaT assays, 120 sec; aPTT and PTT assays, 180 sec. Clotting was then initiated by adding 50 μl of 25 mM calcium chloride solution that had been pre-warmed to 37° C. The time to clot formation was then measured relative to the point of addition of calcium chloride. […] When the effect of TFPI on clotting was tested, TFPI was added to plasma at the indicated concentration immediately before use. When the effect of polyP on clotting was tested, polyP was added to the clotting reagent at the indicated concentration. […]

pooled normal plasma = experiment: Dilute PT assay; type: biochemical, human
Method: The ability of polyP75 to influence the clotting time of a variety of clotting assays was systematically evaluated, employing commonly used plasma clotting assays including the prothrombin time (PT) assay, the partial thromboplastin time (PTT) assay, the activated partial thromboplastin time (aPTT) assay, a factor Xa clotting assay (XaT), and the thrombin time (TT) assay (FIG. 9). The PT assay, which is conducted by adding a thromboplastin reagent (a source of tissue factor activity and calcium ions) to plasma, drives coagulation through the extrinsic, or tissue factor pathway. The PTT and aPTT assays rely on the contact, or intrinsic, pathway of blood clotting. The XaT assay relies on the presence of factor V, prothrombin and fibrinogen in plasma, while the TT assay relies only on the presence of fibrinogen. Therefore, these assays assess different stages of the blood clotting cascades. All were performed in a coagulometer at 37° C.
Coagulometer-based plasma clotting assays—Recombinant human tissue factor was reconstituted into phospholipid vesicles as previously described, using a mixture of 20% phosphatidylserine and 80% phosphatidylcholine at a phospholipid:tissue factor molar ratio of 8700:1. Blank phospholipid vesicles (PCPS vesicles) composed of 20% phosphatidylserine and 80% phosphatidylcholine (and no tissue factor) were prepared as described. […]
The PT, XaT, aPTT and PTT clotting assays were typically performed in a STart coagulometer (Diagnostica Stago) by pre-incubating 50 μl of human plasma with 50 μl of the indicated clotting reagent at 37° C. for the following times: PT and XaT assays, 120 sec; aPTT and PTT assays, 180 sec. […] The time to clot formation was then measured relative to the point of addition of calcium chloride. The TT clotting assay was performed in the same coagulometer as follows: 50 μl human plasma was pre-warmed to 37° C. for 60 sec, after which 50 μl of pre-warmed TT reagent was added and the time to clot formation was measured. […]

[2] = polyP25-75 at 75 μM phosphate equivalents (FIG. 5), short phosphates data not shown

Molecule: O=P(O)(O)OP(=O)(O)O [PPi, pyrophosphate]
- ability to inhibit fibrinolysis, dependence on chain length [1, 2]: no discernable effect on fibrinolysis
- blocking of TFPI anticoagulant effect, dependence on chain length (TFPI): did not block TFPI anticoagulant function at all

Molecule: O=P(O)(O)O [Pi, sodium phosphate]
- ability to inhibit fibrinolysis, dependence on chain length [1]: no discernable effect on fibrinolysis
- blocking of TFPI anticoagulant effect, dependence on chain length (TFPI): did not block TFPI anticoagulant function at all

Molecule: TFPI: Recombinant, full-length human tissue factor pathway inhibitor
- dilute PT clotting time (pooled normal plasma; 100 ng/ml TFPI added to pooled normal plasma, no polyP (66 sec without TFPI)): over 160 sec
- dilute PT mean clotting time (pooled normal plasma; 200 ng/ml TFPI added, no polyP (59 sec without TFPI)): 294 s
- effect of added TFPI on dilute PT clotting time (in words) (pooled normal plasma; TFPI added to pooled normal plasma, no polyP): greatly prolonged the dilute PT clotting time; also recorded: substantially prolonged

Molecule: sodium tripolyphosphate [polyP3]
- ability to inhibit fibrinolysis, dependence on chain length [1, 2]: no discernable effect on fibrinolysis
- blocking of TFPI anticoagulant effect, dependence on chain length (TFPI; 200 ng/ml TFPI, 75 μM phosphate equivalents in dilute thromboplastin reagent (FIG. 12)): did not block TFPI anticoagulant function at all

Source: patent US9597375B2, “Coagulation and fibrinolytic cascades modulator” (The Board of Trustees of the University of Illinios, priority 2005, dated 2017)
